# Assay results: patent US20240336608A1, “IL4I1 INHIBITORS AND METHODS OF USE” (Merck Sharp & Dohme LLC, priority 2023, published 2024)
# Target: T1, recombinant IL4I1 (Homo sapiens, UniProt Q96RQ9)
# T1 construct: purchased R&D Systems 5684-AO-020
# T1 sequence (Q96RQ9 22-567): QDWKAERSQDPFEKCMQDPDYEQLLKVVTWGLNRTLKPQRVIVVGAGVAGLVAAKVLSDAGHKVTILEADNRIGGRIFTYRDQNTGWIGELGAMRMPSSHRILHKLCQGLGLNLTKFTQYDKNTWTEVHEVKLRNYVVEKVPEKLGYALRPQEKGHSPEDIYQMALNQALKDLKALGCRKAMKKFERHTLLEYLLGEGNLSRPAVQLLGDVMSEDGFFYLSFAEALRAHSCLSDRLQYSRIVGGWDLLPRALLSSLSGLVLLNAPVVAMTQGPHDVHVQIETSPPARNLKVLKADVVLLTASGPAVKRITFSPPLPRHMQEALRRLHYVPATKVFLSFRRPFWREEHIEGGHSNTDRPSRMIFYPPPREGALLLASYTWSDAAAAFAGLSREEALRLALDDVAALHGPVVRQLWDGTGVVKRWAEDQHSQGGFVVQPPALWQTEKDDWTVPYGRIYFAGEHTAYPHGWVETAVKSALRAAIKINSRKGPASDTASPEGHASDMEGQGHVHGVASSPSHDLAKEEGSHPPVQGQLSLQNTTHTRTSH
# Assay: IL4I1 Enzymatic Assay (Amplex Red/HRP coupled detection of H2O2, fluorescence)
# Assay type: biochemical
# Conditions: 1 nM recombinant IL4I1; four-hour pre-incubation with compound; 1 mM each Phe, Tyr, Trp; ten-point titration
# Method: Interleukin 4 inducible protein 1 (IL4I1) is an L-amino oxidase that catalyzes the oxidation of aromatic residues (Phe, Trp and Tyr): L-amino acid+H2O+O2→2-oxo acid+NH3+H2O2. Equal molar of H2O2 and the corresponding alpha-ketoacid are produced when IL4I1 and substrate are added. In this assay, the hydrogen peroxide generated by IL4I1 is then detected through a coupled reaction with Amplex Red (10-acetyl-3,7-dihydroxyphenoxazine) and […] (HRP) to produce Resorufin product that could be detected in the form of fluorescence signals. The assessment of the inhibitory effect of small molecules (EC50) on IL4I1 is measured by the effectiveness of the compounds to inhibit the production of H202.
# Using this assay, the potency (EC50) of each compound was determined from a ten-point (1:3 serial dilution) titration curve using the following outlined procedure. To each well of a black flat-bottom Greiner (Cat #781076) 384 well-plate, 125 nL of compound (0.5% DMSO in final assay volume of 25 μL) was dispensed, followed by the addition of 12.5 μL of 1× assay buffer (50 mM Hepes 7.0 and 0.005% Tween20 (Sigma, Cat #P8341; low peroxide grade)) containing 2 nM of recombinant IL4I1 (R&D Systems, Cat #5684-AO-020). Plates were placed in an ambient temperature humidified chamber for a four-hour pre-incubation with compound. Subsequently, each reaction was initiated by the addition of 12.5 μL 1× assay buffer containing 2 mM of each aromatic amino acids (Phe/Tyr/Trp), 0.1 mM Amplex Red and 2 U/mL of HRP. The final reaction in each well of 25 μL consists of 1 nM of IL4I1, 1 mM of each residue (Phe, Tyr and Trp), 0.05 mM Amplex Red and 1 U/mL of HRP. It should be noted that the concentrations of Amplex Red and HRP used here are in excess such that the conversion of H2O2 to Resorufin product occurs instantaneously and non-rate limiting. Reactions were allowed to proceed for 120 minutes followed by fluorescence readout on a Spectramax with the following set parameters: 544 nm excitation/590 nm emission, 570 nm cutoff (EnVision is an alternative reader). Dose-response curves were generated by plotting percent effect (% inhibition; Y-axis) vs. Log10 compound concentrations (X-axis). EC50 values were calculated using a non-linear regression, four-parameters sigmoidal dose-response model and are shown in Table 16.
row,Compound,EC50
1,"CC(C)Cc1cc(C(=O)NCc2nnc(-c3ccccc3)s2)no1 [Example 7, 5-isobutyl-N-[(5-phenyl-1,3,4-thiadiazol-2-yl)methyl]isoxazole-3-carboxamide]",8 nM
2,"Cc1ccc(-n2cc(C(=O)NCc3nnc(-c4cc(F)ccc4F)s3)nn2)c(C)n1 [Example 108, N-((5-(2,5-difluorophenyl)-1,3,4-thiadiazol-2-yl)methyl)-1-(2,6-dimethylpyridin-3-yl)-1H-1,2,3-triazole-4-carboxamide]",651 nM
3,"CN(C)C(=O)CCn1cc(C(=O)NCc2nnc(-c3ccccc3)s2)nn1 [Example 193, 1-(3-(dimethylamino)-3-oxopropyl)-N-((5-phenyl-1,3,4-thiadiazol-2-yl)methyl)-1H-1,2,3-triazole-4-carboxamide]",958 nM
4,"CC(NC(=O)c1cn(CC(F)F)nn1)c1nnc(-c2ccccc2)s1 (single isomer, unassigned) [Example 251, 1-(2,2-difluoroethyl)-N-(1-(5-phenyl-1,3,4-thiadiazol-2-yl)ethyl)-1H-1,2,3-triazole-4-carboxamide]",84 nM
5,"C[C@H](C1COC1)n1cc(C(=O)NCc2nnc(-c3ccccc3)s2)nn1 [Example 149, (R)-1-(1-(oxetan-3-yl)ethyl)-N-((5-phenyl-1,3,4-thiadiazol-2-yl)methyl)-1H-1,2,3-triazole-4-carboxamide]",132 nM
6,"N#CC1(n2cc(C(=O)NCc3nnc(-c4ccccc4)s3)nn2)CCOC1 (stereo not drawn) [Example 197, 1-(3-cyanotetrahydrofuran-3-yl)-N-((5-phenyl-1,3,4-thiadiazol-2-yl)methyl)-1H-1,2,3-triazole-4-carboxamide]",28 nM
7,"CC(C)Cc1cc(C(=O)NCc2nnc(-c3ccccc3)s2)[nH]n1 [Example 21, 3-isobutyl-N-((5-phenyl-1,3,4-thiadiazol-2-yl)methyl)-1H-pyrazole-5-carboxamide]",209 nM
8,"O=C(NCc1nnc(-c2ccccc2)s1)c1cn(C2(CO)COC2)nn1 [Example 158, 1-(3-(hydroxymethyl)oxetan-3-yl)-N-((5-phenyl-1,3,4-thiadiazol-2-yl)methyl)-1H-1,2,3-triazole-4-carboxamide]",335 nM
9,"O=C(NCc1nnc(-c2ccccc2)s1)c1cn(CC(F)(F)C(=O)O)nn1 [Example 331, 2,2-difluoro-3-(4-(((5-phenyl-1,3,4-thiadiazol-2-yl)methyl)carbamoyl)-1H-1,2,3-triazol-1-yl)propanoic acid]",382 nM
10,"CC(NC(=O)c1cn(CC(F)F)nn1)c1nnc(-c2ccccc2)s1 (single isomer, unassigned) [Example 252, 1-(2,2-difluoroethyl)-N-(1-(5-phenyl-1,3,4-thiadiazol-2-yl)ethyl)-1H-1,2,3-triazole-4-carboxamide]",15 nM
11,"O=C(NCc1nnc(-c2ccccc2)s1)c1cnnn1C1CCOC1 (stereo not drawn) [Example 306, N-((5-phenyl-1,3,4-thiadiazol-2-yl)methyl)-1-(tetrahydrofuran-3-yl)-1H-1,2,3-triazole-5-carboxamide]",654 nM
12,"N#CCn1cc(C(=O)NCc2nnc(-c3ccccc3)s2)nn1 [Example 74, 1-(cyanomethyl)-N-((5-phenyl-1,3,4-thiadiazol-2-yl)methyl)-1H-1,2,3-triazole-4-carboxamide]",14 nM
13,"O=C(NCc1nnc(-c2ccccc2)s1)c1cn(CC2(F)CCC2)nn1 [Example 135, 1-((1-fluorocyclobutyl)methyl)-N-((5-phenyl-1,3,4-thiadiazol-2-yl)methyl)-1H-1,2,3-triazole-4-carboxamide]",100 nM
14,"C[C@H](CO)n1cc(C(=O)NCc2nnc(-c3ccccc3)s2)nn1 [Example 303, (R)-1-(1-hydroxypropan-2-yl)-N-((5-phenyl-1,3,4-thiadiazol-2-yl)methyl)-1H-1,2,3-triazole-4-carboxamide]",6 nM
15,"Cn1cc(C(=O)NCc2nnc(-c3ccc(O)cc3)s2)nn1 [Example 295, N-[[5-(4-hydroxyphenyl)-1,3,4-thiadiazol-2-yl]methyl]-1-methyl-triazole-4-carboxamide]",81 nM
16,"Cc1ccc(-n2cc(C(=O)NCc3nnc(-c4ccncc4)s3)nn2)c(C)n1 [Example 265, 1-(2,6-dimethylpyridin-3-yl)-N-((5-(pyridin-4-yl)-1,3,4-thiadiazol-2-yl)methyl)-1H-1,2,3-triazole-4-carboxamide]",16 nM
17,"O=C(NCc1nnc(-c2ccccc2)s1)c1cn(C2CC2(F)F)nn1 (single isomer, unassigned) [Example 131, 1-(2,2-difluorocyclopropyl)-N-((5-phenyl-1,3,4-thiadiazol-2-yl)methyl)-1H-1,2,3-triazole-4-carboxamide]",54 nM
18,"O=C(NCc1nnc(-c2ccccc2)s1)c1cn(-c2ccccn2)nn1 [Example 310, N-((5-phenyl-1,3,4-thiadiazol-2-yl)methyl)-1-(pyridin-2-yl)-1H-1,2,3-triazole-4-carboxamide]",182 nM
19,"O=C(NCc1nnc(-c2ccccc2)s1)c1cn(C2(CO)CCC2)nn1 [Example 163, 1-(1-(hydroxymethyl)cyclobutyl)-N-((5-phenyl-1,3,4-thiadiazol-2-yl)methyl)-1H-1,2,3-triazole-4-carboxamide]",104 nM
20,"CC1(n2cc(C(=O)NCc3nnc(-c4ccccc4)s3)nn2)CC(F)(F)C1 [Example 208, 1-(3,3-difluoro-1-methylcyclobutyl)-N-((5-phenyl-1,3,4-thiadiazol-2-yl)methyl)-1H-1,2,3-triazole-4-carboxamide]",711 nM
21,"Cc1csc(C(=O)NCc2nnc(-c3ccccc3)s2)c1 [Example 10, 4-methyl-N-[(5-phenyl-1,3,4-thiadiazol-2-yl)methyl]thiophene-2-carboxamide]",10 nM
22,"COc1ccsc1C(=O)NCc1nnc(-c2ccccc2)s1 [Example 29, 3-methoxy-N-[(5-phenyl-1,3,4-thiadiazol-2-yl)methyl]thiophene-2-carboxamide]",10 nM
23,"COCCOCCn1cc(C(=O)NCc2nnc(-c3ccccc3)s2)nn1 [Example 85, 1-(2-(2-methoxyethoxy)ethyl)-N-((5-phenyl-1,3,4-thiadiazol-2-yl)methyl)-1H-1,2,3-triazole-4-carboxamide]",15 nM
24,"Cn1cc(C(=O)NCc2nnc(-c3cn[nH]c3)s2)nn1 [Example 299, N-((5-(1H-pyrazol-4-yl)-1,3,4-thiadiazol-2-yl)methyl)-1-methyl-1H-1,2,3-triazole-4-carboxamide]",215 nM
25,"CC([C@H]1CCCO1)n1cc(C(=O)NCc2nnc(-c3ccccc3)s2)nn1 (stereo partly drawn) [Example 204, N-((5-phenyl-1,3,4-thiadiazol-2-yl)methyl)-1-(1-((R)-tetrahydrofuran-2-yl)ethyl)-1H-1,2,3-triazole-4-carboxamide]",74 nM
26,"Cc1ccc(-n2cc(C(=O)NCc3cc(-c4cccc(Cl)c4)no3)nn2)c(C)n1 [Example 221, N-{[3-(3-chlorophenyl)-1,2-oxazol-5-yl]methyl}-1-(2,6-dimethylpyridin-3-yl)-1H-1,2,3-triazole-4-carboxamide]",722 nM
27,"CC(C)(Cn1cc(C(=O)NCc2nnc(-c3ccccc3)s2)nn1)C(N)=O [Example 126, 1-(3-amino-2,2-dimethyl-3-oxo-propyl)-N-[(5-phenyl-1,3,4-thiadiazol-2-yl)methyl]triazole-4-carboxamide]",843 nM
